Reference: ChEMBL document CHEMBL4725370, “Discovery of Proteolysis-Targeting Chimera Molecules that Selectively Degrade the IRAK3 Pseudokinase” (J Med Chem, 2020)
The source made the active and inactive calls. No cut-off for these calls is given here.

Tests used:
[1] = Octanol/buffer partition coefficient, log D of the compound at pH 7.4 by shake-flask method; assay type: physicochemical
[2] = target: T1, Serine/threonine-protein kinase haspin (Homo sapiens, UniProt Q8TF76); assay: Inhibition of GSG2 (unknown origin)
T1 sequence (Q8TF76 whole entry): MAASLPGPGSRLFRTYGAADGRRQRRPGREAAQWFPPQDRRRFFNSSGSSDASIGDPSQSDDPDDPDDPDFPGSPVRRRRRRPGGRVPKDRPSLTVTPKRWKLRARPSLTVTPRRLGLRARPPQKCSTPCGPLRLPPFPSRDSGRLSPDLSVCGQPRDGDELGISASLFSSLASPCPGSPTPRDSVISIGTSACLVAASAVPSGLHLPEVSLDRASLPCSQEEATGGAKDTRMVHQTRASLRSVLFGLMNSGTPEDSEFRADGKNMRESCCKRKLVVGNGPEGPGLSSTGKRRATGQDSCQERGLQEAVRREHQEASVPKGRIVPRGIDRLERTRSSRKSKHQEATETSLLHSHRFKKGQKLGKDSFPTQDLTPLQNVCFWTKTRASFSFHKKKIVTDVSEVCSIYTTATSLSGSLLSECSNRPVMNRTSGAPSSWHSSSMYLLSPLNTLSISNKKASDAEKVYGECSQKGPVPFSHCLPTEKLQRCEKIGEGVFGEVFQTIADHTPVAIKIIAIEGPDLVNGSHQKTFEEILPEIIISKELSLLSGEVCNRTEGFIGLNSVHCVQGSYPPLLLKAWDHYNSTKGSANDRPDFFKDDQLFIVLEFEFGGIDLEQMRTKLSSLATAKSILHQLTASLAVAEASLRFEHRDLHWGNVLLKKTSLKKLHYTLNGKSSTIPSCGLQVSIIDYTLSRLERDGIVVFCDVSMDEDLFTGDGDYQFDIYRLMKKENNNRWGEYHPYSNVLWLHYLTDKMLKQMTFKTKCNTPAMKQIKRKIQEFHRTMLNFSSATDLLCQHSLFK

[3] = target: Cyclin-C/Cyclin-dependent kinase 19 (Homo sapiens, UniProt P24863+Q9BWU1); assay: Inhibition of CDK11/cyclin C (unknown origin); assay type: protein-complex assay
[4] = target: Cyclin-C/Cyclin-dependent kinase 19 (Homo sapiens) (UniProt Q9BWU1+P24863); assay: Inhibition of CDK11/cyclin C (unknown origin) at 0.1 uM relative to control; assay type: protein-complex assay
[5] = target: T2, Protein cereblon/Interleukin-1 receptor-associated kinase 3 (Homo sapiens, UniProt Q9Y616+Q96SW2); assay: Protac activity at CRBN/IRAK3 in LPS-induced human THP1 cells assessed as induction of IRAK3 degradation after 16 hrs by Western blot analysis; assay type: cell-based; details: thp-1
Target sequence in this assay (Q9Y616 whole entry): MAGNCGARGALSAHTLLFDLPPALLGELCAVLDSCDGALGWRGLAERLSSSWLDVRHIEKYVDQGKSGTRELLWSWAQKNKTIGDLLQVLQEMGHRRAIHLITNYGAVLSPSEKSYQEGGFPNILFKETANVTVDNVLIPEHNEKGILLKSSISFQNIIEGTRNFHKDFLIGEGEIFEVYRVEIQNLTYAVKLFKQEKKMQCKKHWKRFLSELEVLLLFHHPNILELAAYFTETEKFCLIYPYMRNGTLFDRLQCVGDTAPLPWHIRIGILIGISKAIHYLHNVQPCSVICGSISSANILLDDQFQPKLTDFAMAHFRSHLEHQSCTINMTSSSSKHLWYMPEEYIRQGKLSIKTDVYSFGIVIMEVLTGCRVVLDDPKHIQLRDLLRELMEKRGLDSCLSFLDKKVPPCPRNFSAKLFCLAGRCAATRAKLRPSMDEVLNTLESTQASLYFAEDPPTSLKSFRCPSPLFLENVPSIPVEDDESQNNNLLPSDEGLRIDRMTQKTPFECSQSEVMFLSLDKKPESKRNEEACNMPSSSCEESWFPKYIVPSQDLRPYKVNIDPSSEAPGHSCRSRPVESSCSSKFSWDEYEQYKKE
Target sequence in this assay (Q96SW2 whole entry): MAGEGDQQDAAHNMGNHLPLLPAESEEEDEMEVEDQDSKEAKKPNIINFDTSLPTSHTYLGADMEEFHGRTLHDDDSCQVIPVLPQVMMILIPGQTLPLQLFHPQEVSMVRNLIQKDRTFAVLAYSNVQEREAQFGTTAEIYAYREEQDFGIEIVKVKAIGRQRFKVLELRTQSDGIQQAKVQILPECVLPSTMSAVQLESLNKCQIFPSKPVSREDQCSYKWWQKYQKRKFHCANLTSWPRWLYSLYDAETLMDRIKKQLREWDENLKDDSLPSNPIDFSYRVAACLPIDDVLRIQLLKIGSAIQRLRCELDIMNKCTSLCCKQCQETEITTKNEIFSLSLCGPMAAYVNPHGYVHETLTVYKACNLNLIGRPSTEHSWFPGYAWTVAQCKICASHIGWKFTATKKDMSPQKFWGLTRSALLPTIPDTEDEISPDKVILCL

[6] = target: NT-3 growth factor receptor (Homo sapiens, UniProt Q16288); assay: Inhibition of NTRK3 (unknown origin) at 0.1 uM relative to control
[7] = target: BDNF/NT-3 growth factors receptor (Homo sapiens) (UniProt Q16620); assay: Inhibition of NTRK2 (unknown origin) at 0.1 uM relative to control
[8] = target: Interleukin-1 receptor-associated kinase 1 (Homo sapiens, UniProt P51617); assay: Displacement of polymer supported probe 25 binding to IRAK1 in human THP-1 cell lysates preincubated for 45 mins under shaking condition followed by probe addition and measured after 30 mins by mass spectrometry based chemoproteomic analysis; assay type: subcellular; details: read-out: Kd(app)
[9] = target: Cyclin-dependent kinase 8 (Homo sapiens, UniProt P49336); assay: Displacement of polymer supported probe 25 binding to CDK8 in human THP-1 cell lysates preincubated for 45 mins under shaking condition followed by probe addition and measured after 30 mins by mass spectrometry based chemoproteomic analysis; assay type: subcellular; details: read-out: Kd(app)
[10] = target: Cyclin-dependent kinase 19 (Homo sapiens, UniProt Q9BWU1); assay: Displacement of polymer supported probe 25 binding to CDK11 in human THP-1 cell lysates preincubated for 45 mins under shaking condition followed by probe addition and measured after 30 mins by mass spectrometry based chemoproteomic analysis; assay type: subcellular; details: read-out: Kd(app)
[11] = target: T1, Serine/threonine-protein kinase haspin; assay: Displacement of polymer supported probe 25 binding to GSG2 in human THP-1 cell lysates preincubated for 45 mins under shaking condition followed by probe addition and measured after 30 mins by mass spectrometry based chemoproteomic analysis; assay type: subcellular; details: read-out: Kd(app)
THP-1 [12] = assay: Selectivity ratio of Kd(app) for displacement of polymer supported probe 25 binding to CDK8 in human THP-1 cell lysates to Kd(app) for displacement of polymer supported probe 25 binding to IRAK3 in human THP-1 cell lysates
THP-1 [13] = assay: Selectivity ratio of Kd(app) for displacement of polymer supported probe 25 binding to CDK11 in human THP-1 cell lysates to Kd(app) for displacement of polymer supported probe 25 binding to IRAK3 in human THP-1 cell lysates
[14] = target: T2, Protein cereblon/Interleukin-1 receptor-associated kinase 3; assay: Protac activity at CRBN/IRAK3 in LPS-induced human THP1 cells assessed as induction of IRAK3 degradation at 0.1 uM measured after 6 hrs by HPLC-MS based global proteomic analysis relative to control; assay type: cell-based; details: THP-1
Target sequence in this assay (Q96SW2 whole entry, looked up): as the sequence (Q96SW2 whole entry) above
Target sequence in this assay (Q9Y616 whole entry, looked up): as the sequence (Q9Y616 whole entry) above

[15] = target: Protein cereblon/Interleukin-1 receptor-associated kinase 1 (Homo sapiens) (UniProt P51617+Q96SW2); assay: Protac activity at CRBN/IRAK1 in LPS-induced human THP1 cells assessed as induction of IRAK1 degradation at 0.1 uM measured after 6 hrs by HPLC-MS based global proteomic analysis; assay type: cell-based; details: THP-1
[16] = target: Delta(24)-sterol reductase (Homo sapiens) (UniProt Q15392); assay: Displacement of polymer supported probe 25 binding to DHCR24 in human THP-1 cell lysates at 30 uM preincubated for 45 mins under shaking condition followed by probe addition and measured after 30 mins by mass spectrometry based chemoproteomic analysis relative to control; assay type: subcellular
[17] = target: Cereblon/Ikaros (Homo sapiens) (UniProt Q96SW2+Q13422); assay: Protac activity at CRBN/IKZF1 in LPS-induced human THP1 cells assessed as induction of IKZF1 degradation at 0.1 uM measured after 6 hrs by HPLC-MS based global proteomic analysis; assay type: cell-based; details: THP-1
[18] = target: Protein cereblon/Eukaryotic peptide chain release factor GTP-binding subunit ERF3A (Homo sapiens) (UniProt Q96SW2+P15170); assay: Protac activity at CRBN/GSPT1 in LPS-induced human THP1 cells assessed as induction of GSPT1 degradation at 0.1 uM measured after 6 hrs by HPLC-MS based global proteomic analysis; assay type: cell-based; details: THP-1
[19] = target: T2, Protein cereblon/Interleukin-1 receptor-associated kinase 3; assay: Protac activity at CRBN/IRAK3 in human THP1 cells assessed as induction of IRAK3 degradation at 0.1 uM preincubated for 16 hrs followed by compound washout and measured after 24 hrs by Western blot analysis; assay type: cell-based; details: THP-1
Target sequence in this assay (Q96SW2 whole entry, looked up): as the sequence (Q96SW2 whole entry) above
Target sequence in this assay (Q9Y616 whole entry, looked up): as the sequence (Q9Y616 whole entry) above

[20] = target: T2, Protein cereblon/Interleukin-1 receptor-associated kinase 3; assay: Protac activity at CRBN/IRAK3 in human THP1 cells assessed as induction of IRAK3 degradation at 0.1 uM measured after 6 hrs in presence of proteasome inhibitor MG132 by Western blot analysis; assay type: cell-based; details: THP-1
Target sequence in this assay (Q96SW2 whole entry, looked up): as the sequence (Q96SW2 whole entry) above
Target sequence in this assay (Q9Y616 whole entry, looked up): as the sequence (Q9Y616 whole entry) above

[21] = target: T2, Protein cereblon/Interleukin-1 receptor-associated kinase 3; assay: Protac activity at CRBN/IRAK3 in human THP1 cells assessed as induction of IRAK3 degradation at 0.1 uM measured after 6 hrs in presence of NEDD8-activating enzyme inhibitor MLN4924 by Western blot analysis; assay type: cell-based; details: THP-1
Target sequence in this assay (Q96SW2 whole entry, looked up): as the sequence (Q96SW2 whole entry) above
Target sequence in this assay (Q9Y616 whole entry, looked up): as the sequence (Q9Y616 whole entry) above

[22] = target: T2, Protein cereblon/Interleukin-1 receptor-associated kinase 3; assay: Protac activity at CRBN/IRAK3 in human PBMC derived primary macrophages assessed as induction of IRAK3 degradation at 0.3 uM measured after 8 to 32 hrs by Western blot analysis; assay type: tissue-based; details: Primary macrophage, time hrs 8-32
Target sequence in this assay (Q96SW2 whole entry, looked up): as the sequence (Q96SW2 whole entry) above
Target sequence in this assay (Q9Y616 whole entry, looked up): as the sequence (Q9Y616 whole entry) above

Sequence of Cyclin-dependent kinase 8 (P49336 whole entry): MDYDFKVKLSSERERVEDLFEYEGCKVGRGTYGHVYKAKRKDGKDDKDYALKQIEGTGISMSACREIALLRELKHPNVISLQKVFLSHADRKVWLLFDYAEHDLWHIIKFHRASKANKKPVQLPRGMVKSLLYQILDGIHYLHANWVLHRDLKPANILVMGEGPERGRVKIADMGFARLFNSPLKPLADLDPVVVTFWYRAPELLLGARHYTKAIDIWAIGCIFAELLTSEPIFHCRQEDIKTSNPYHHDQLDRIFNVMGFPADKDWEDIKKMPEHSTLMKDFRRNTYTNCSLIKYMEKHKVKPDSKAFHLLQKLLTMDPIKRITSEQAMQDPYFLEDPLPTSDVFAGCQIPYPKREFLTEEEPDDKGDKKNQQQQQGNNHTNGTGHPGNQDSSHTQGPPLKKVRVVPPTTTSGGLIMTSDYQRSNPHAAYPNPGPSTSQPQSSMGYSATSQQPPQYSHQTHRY
Sequence of Interleukin-1 receptor-associated kinase 1 (P51617 whole entry): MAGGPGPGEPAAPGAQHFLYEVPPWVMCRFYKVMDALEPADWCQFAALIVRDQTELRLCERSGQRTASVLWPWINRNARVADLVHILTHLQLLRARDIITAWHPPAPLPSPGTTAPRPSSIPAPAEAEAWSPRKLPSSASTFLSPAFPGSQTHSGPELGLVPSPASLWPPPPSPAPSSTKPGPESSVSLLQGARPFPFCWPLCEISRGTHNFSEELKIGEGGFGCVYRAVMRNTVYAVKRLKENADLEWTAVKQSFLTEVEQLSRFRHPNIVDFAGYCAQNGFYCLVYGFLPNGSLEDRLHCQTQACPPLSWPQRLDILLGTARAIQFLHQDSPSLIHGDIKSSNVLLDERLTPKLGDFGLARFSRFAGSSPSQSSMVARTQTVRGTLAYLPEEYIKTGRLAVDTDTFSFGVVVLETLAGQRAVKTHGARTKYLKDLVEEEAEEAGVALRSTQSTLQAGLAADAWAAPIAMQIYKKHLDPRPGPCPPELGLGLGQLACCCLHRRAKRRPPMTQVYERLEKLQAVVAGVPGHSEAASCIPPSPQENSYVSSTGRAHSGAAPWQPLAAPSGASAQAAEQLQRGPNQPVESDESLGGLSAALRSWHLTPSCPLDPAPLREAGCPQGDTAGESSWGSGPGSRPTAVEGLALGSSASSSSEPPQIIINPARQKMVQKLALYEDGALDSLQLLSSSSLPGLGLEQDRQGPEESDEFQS
Sequence of Protein cereblon/Interleukin-1 receptor-associated kinase 1 (Homo sapiens) (P51617 whole entry, looked up): as the sequence (P51617 whole entry) above
Sequence of Protein cereblon/Interleukin-1 receptor-associated kinase 1 (Homo sapiens) (Q96SW2 whole entry, looked up): as the sequence (Q96SW2 whole entry) above

- logD [1]: 3.1
- IC50 [2]: 110 nM
- IC50 [3]: 16 nM
- inhibition [4]: 82%
- DC50 [5]: 2 nM
- inhibition [6]: 60%
- inhibition [7]: 45%
- Kd [8]: 2800 nM
- Kd [9]: 1400 nM
- Kd [10]: > 30 µM
- Kd [11]: 780 nM
- fold change (FC) [14]: -1.8
- Activity [15]: inactive
- inhibition [16]: < 40%
- Activity [17]: inactive
- Activity [18]: inactive
- Activity [19]: inactive
- Activity [20]: inactive
- Activity [21]: inactive
- Activity [22]: Active
Compound: CC(C)c1ccn2ncnc(N[C@H]3CC[C@@H](N4CCN(C(=O)CCC(=O)N5CCC(CCN6CCN(c7ccc8c(c7)C(=O)N(C7CCC(=O)NC7=O)C8=O)CC6)CC5)CC4)CC3)c12 (some centres not stated)
- Selectivity ratio (THP-1 [12]): 41
- Selectivity ratio (THP-1 [13]): > 880
